6 compounds from the NIST ThermoML archive (doi:10.1016/j.jct.2012.06.028) can be followed below.

As a reminder, the refractive index is a measure of how strongly the sample bends light. As usually defined, the mass density is the mass of a sample divided by its volume.

Series [1] in a line: refractive index (Na D-line) (dimensionless). The settings on record: 298.15 K; 101.33 kPa; Liquid; Standard Abbe refractometry.
The conditions of series [2]: 298.15 K; 101.33 kPa; Liquid; Vibrating tube method.

Structures are written as SMILES. ± gives the expanded uncertainty stated by the source.

In the case of `CCCC[n+]1cccc(C)c1.O=S(=O)([N-]S(=O)(=O)C(F)(F)F)C(F)(F)F`, the refractive index in series [1] came to 1.44595 ± 0.0007. Also, the mass density in series [2] was 1414.76 ± 0.6 kg/m3.

As to `CCCC[n+]1ccn(C)c1.O=S(=O)([N-]S(=O)(=O)C(F)(F)F)C(F)(F)F`, the refractive index in series [1] came out at 1.42672 ± 0.0007. In addition, in series [2], the mass density is 1436.1 ± 0.62 kg/m3.

For `CCn1cc[n+](C)c1.O=S(=O)([N-]S(=O)(=O)C(F)(F)F)C(F)(F)F`, the refractive index in series [1] turned out to be 1.42307 ± 0.0007. In addition, the mass density in series [2] is given as 1518.74 ± 0.7 kg/m3.

For the compound `CCCC[n+]1cccc(C)c1.O=S(=O)([O-])C(F)(F)F` [1-butyl-3-methylpyridinium trifluoromethanesulfonate], the refractive index in series [1] was determined as 1.46138 ± 0.0007. In addition, the mass density in series [2] is 1279.77 ± 0.47 kg/m3.

As for `CCO` [ethanol], the refractive index in series [1] worked out at 1.35936 ± 0.00068. Moreover, the mass density in series [2] is 785.44 ± 0.13 kg/m3.

With `CCCCCC` [hexane], the refractive index in series [1] worked out at 1.37241 ± 0.0007. Moreover, in series [2], the mass density is reported as 655.2 ± 0.26 kg/m3.
